Measured values taken from ChEMBL document CHEMBL4219190, “Studies on synthesis of novel pyrido[2,3-d]pyrimidine derivatives, evaluation of their antimicrobial activity and molecular docking” (Bioorg Med Chem Lett, 2018).
Values after ≈ are worked out from the molar mass of the structure shown. Active and inactive are the calls of the source. The rule behind the calls is not given here.

Experiments:
Bacillus subtilis [1] = assay: Antibacterial activity against Bacillus subtilis MTCC 121 after 24 hrs by well diffusion method; type: functional
Staphylococcus aureus [2] = assay: Antibacterial activity against Staphylococcus aureus MTCC 96 after 24 hrs by well diffusion method; type: functional
Staphylococcus aureus [3] = assay: Antibacterial activity against Staphylococcus aureus MLS16 MTCC 2940 after 24 hrs by well diffusion method; type: functional
Micrococcus luteus [4] = assay: Antibacterial activity against Micrococcus luteus MTCC 2470 after 24 hrs by well diffusion method; type: functional
Raoultella planticola [5] = assay: Antibacterial activity against Klebsiella planticola MTCC 530 after 24 hrs by well diffusion method; type: functional
Escherichia coli [6] = assay: Antibacterial activity against Escherichia coli MTCC 739 after 24 hrs by well diffusion method; type: functional
Pseudomonas aeruginosa [7] = assay: Antibacterial activity against Pseudomonas aeruginosa MTCC 2453 after 24 hrs by well diffusion method; type: functional
Bacillus subtilis [8] = assay: Bactericidal activity against Bacillus subtilis MTCC 121 incubated for 24 hrs followed by transfer of microbial suspension to Mueller Hinton agar plates and measured after 24 hrs post transfer; type: functional
Staphylococcus aureus [9] = assay: Bactericidal activity against Staphylococcus aureus MTCC 96 incubated for 24 hrs followed by transfer of microbial suspension to Mueller Hinton agar plates and measured after 24 hrs post transfer; type: functional
Staphylococcus aureus [10] = assay: Bactericidal activity against Staphylococcus aureus MLS16 MTCC 2940 incubated for 24 hrs followed by transfer of microbial suspension to Mueller Hinton agar plates and measured after 24 hrs post transfer; type: functional
Micrococcus luteus [11] = assay: Bactericidal activity against Micrococcus luteus MTCC 2470 incubated for 24 hrs followed by transfer of microbial suspension to Mueller Hinton agar plates and measured after 24 hrs post transfer; type: functional
Raoultella planticola [12] = assay: Bactericidal activity against Klebsiella planticola MTCC 530 incubated for 24 hrs followed by transfer of microbial suspension to Mueller Hinton agar plates and measured after 24 hrs post transfer; type: functional; details: MTCC 530, 24 h
Escherichia coli [13] = assay: Bactericidal activity against Escherichia coli MTCC 739 incubated for 24 hrs followed by transfer of microbial suspension to Mueller Hinton agar plates and measured after 24 hrs post transfer; type: functional
Pseudomonas aeruginosa [14] = assay: Bactericidal activity against Pseudomonas aeruginosa MTCC 2453 incubated for 24 hrs followed by transfer of microbial suspension to Mueller Hinton agar plates and measured after 24 hrs post transfer; type: functional
Bacillus subtilis [15] = assay: Antibiofilm activity against Bacillus subtilis MTCC 121 after 24 hrs by crystal violet staining-based assay; type: functional, organism-based
Staphylococcus aureus [16] = assay: Antibiofilm activity against Staphylococcus aureus MTCC 96 after 24 hrs by crystal violet staining-based assay; type: functional, organism-based
Staphylococcus aureus [17] = assay: Antibiofilm activity against Staphylococcus aureus MLS16 MTCC 2940 after 24 hrs by crystal violet staining-based assay; type: functional, organism-based
Pseudomonas aeruginosa [18] = assay: Antibiofilm activity against Pseudomonas aeruginosa MTCC 2453 after 24 hrs by crystal violet staining-based assay; type: functional, organism-based
Raoultella planticola [19] = assay: Antibiofilm activity against Klebsiella planticola MTCC 530 after 24 hrs by crystal violet staining-based assay; type: functional, organism-based; details: Klebsiella planticola, MTCC 530, 24 h; read-out: IC50

Row | Structure (SMILES) | MIC (Bacillus subtilis [1]) | MIC (Staphylococcus aureus [2]) | MIC (Staphylococcus aureus [3]) | MIC (Micrococcus luteus [4]) | MIC (Raoultella planticola [5]) | MIC (Escherichia coli [6]) | MIC (Pseudomonas aeruginosa [7]) | MIC (Raoultella planticola [5]; MTCC 530, 24 h) [µg/mL] | MBC (Raoultella planticola [12]) [µg/mL] | IC50 (Raoultella planticola [19]) [µg/mL] | further results
1 | COc1ccc(-c2nc(C(=O)NCc3ccco3)nc3nc(-c4ccccc4)cc(C(F)(F)F)c23)cc1 | inactive | inactive | inactive | inactive | inactive | inactive | inactive |  |  |  | 
2 | CCCNC(=O)c1nc(-c2ccc(OC)cc2)c2c(C(F)(F)F)cc(-c3ccccc3)nc2n1 | inactive | inactive | inactive | inactive | inactive | inactive | inactive |  |  |  | 
3 | O=C(O)c1cn(C2CC2)c2cc(N3CCNCC3)c(F)cc2c1=O [CIPROFLOXACIN] |  |  |  |  |  |  |  | 0.9 (≈ 2.72 µM) | 0.58 (≈ 1.75 µM) | 0.29 (≈ 0.875 µM) | MBC (Bacillus subtilis [8]; MTCC 121, 24 h): 0.58 µg/mL (≈ 1.75 µM); MIC (Bacillus subtilis [1]; MTCC 121, 24 h): 0.9 µg/mL (≈ 2.72 µM); MIC (Staphylococcus aureus [2]; MTCC 96, 24 h): 0.9 µg/mL (≈ 2.72 µM); MIC (Staphylococcus aureus [3]; MLS16 MTCC 2940, 24 h): 0.9 µg/mL (≈ 2.72 µM); MIC (Micrococcus luteus [4]; MTCC 2470, 24 h): 0.9 µg/mL (≈ 2.72 µM); MIC (Escherichia coli [6]; MTCC 739, 24 h): 0.9 µg/mL (≈ 2.72 µM); MIC (Pseudomonas aeruginosa [7]; MTCC 2453, 24 h): 0.9 µg/mL (≈ 2.72 µM); MBC (Staphylococcus aureus [9]; MTCC 96, 24 h): 0.58 µg/mL (≈ 1.75 µM); MBC (Staphylococcus aureus [10]; MLS16 MTCC 2940, 24 h): 1.17 µg/mL (≈ 3.53 µM); MBC (Micrococcus luteus [11]; MTCC 2470, 24 h): 1.17 µg/mL (≈ 3.53 µM); MBC (Escherichia coli [13]; MTCC 739, 24 h): 0.58 µg/mL (≈ 1.75 µM); MBC (Pseudomonas aeruginosa [14]; MTCC 2453, 24 h): 1.17 µg/mL (≈ 3.53 µM); IC50 (Bacillus subtilis [15]; Bacillus subtilis, MTCC 121, 24 h, read-out: IC50): 0.23 µg/mL (≈ 0.694 µM); IC50 (Staphylococcus aureus [16]; Staphylococcus aureus, MTCC 96, 24 h, read-out: IC50): 0.21 µg/mL (≈ 0.634 µM); IC50 (Staphylococcus aureus [17]; Staphylococcus aureus, MLS16 MTCC 2940, 24 h, read-out: IC50): 0.24 µg/mL (≈ 0.724 µM); IC50 (Pseudomonas aeruginosa [18]; Pseudomonas aeruginosa, MTCC 2453, 24 h, read-out: IC50): 0.32 µg/mL (≈ 0.966 µM)
4 | CCNC(=O)c1nc(-c2ccccc2)c2c(C(F)(F)F)cc(-c3ccccc3)nc2n1 | inactive | inactive | inactive | inactive |  | inactive | inactive | 31.2 (≈ 73.9 µM) |  |  | 
5 | COc1ccc(-c2nc(C(=O)N3CCCC3)nc3nc(-c4ccccc4)cc(C(F)(F)F)c23)cc1 | inactive | inactive | inactive | inactive |  | inactive | inactive | 15.6 (≈ 32.6 µM) | 15.6 (≈ 32.6 µM) | 10.8 (≈ 22.6 µM) | MBC (Bacillus subtilis [8]): inactive; MBC (Staphylococcus aureus [9]): inactive; MBC (Staphylococcus aureus [10]): inactive; MBC (Micrococcus luteus [11]): inactive; MBC (Escherichia coli [13]): inactive; MBC (Pseudomonas aeruginosa [14]): inactive; IC50 (Bacillus subtilis [15]): Not Active; IC50 (Staphylococcus aureus [16]): Not Active; IC50 (Staphylococcus aureus [17]): Not Active; IC50 (Pseudomonas aeruginosa [18]): Not Active
6 | COc1ccc(-c2nc(C(=O)N3CCN(CCO)CC3)nc3nc(-c4ccccc4)cc(C(F)(F)F)c23)cc1 | inactive | inactive | inactive | inactive | inactive | inactive | inactive |  |  |  | 
